Data: patent publication US20230095980A1, “Sodium 2-[(4S)-8-fluoro-2-[4-(3-methoxyphenyl)piperazin-1-yl]-3-[2-methoxy-5-(trifluoromethyl)phenyl]-4H-quinazolin-4-yl]acetate and pharmaceutical compositions thereof” (AIC246 AG & Co. KG, priority 2020, published 2023)

Legend:
[1] = intravenous formulation in neonates; cited from earlier work
[2] = Excipient-free formulation: reconstitution with water for injection and dilution in infusion bags; type: physicochemical
Description: 0.3164 g of letermovir sodium trihydrate salt was directly weighed into a washed, sterilized and dried 20R glass vial. […] Six vials were prepared accordingly. The vials were stoppered and crimp capped.
14 ml of water for injection were added to each 20R vial containing 280 mg of Letermovir free base resulting in concentration of 20 mg/ml. Water for injection was added after removal of the flip-off disk from the vial by using a 20-ml disposable syringe plus a 20G needle of 40 mm length.
The content of the vial was carefully homogenized by gentle manual rotation. In parallel, 2 empty infusion bags were filled with 288 ml of each parenteral admixture diluents (Ringer's lactate, 0.9% saline solution and 5% dextrose solution, respectively) by using a 50-ml syringe and a Mini-Spike. 12 ml of the content of the vial was withdrawn by using a 20-ml disposable syringe plus a 20G needle of 40 mm length. The total volume of 12 ml was directly injected into the diluent containing infusion bag. After the injection, the content of the bag was carefully homogenized by gentle manual rotation. Two independent preparations of each diluent were used, i.e., in total 6 infusion bags were prepared. Following, the prepared infusion bags were put on storage at room temperature (protected from light) and another sample was analyzed after 24 hours (T24 h).

Row | Compound | PDE (permissible daily exposure) [1] [mg/day] | pH ([2]; other two diluents (0.9% saline solution, 5% dextrose solution)) | precipitation based on visual inspection ([2]; over 24 hours at room temperature, Ringer's lactate, 0.9% saline, 5% dextrose) | pH ([2]; solution reconstituted with Ringer's lactate, no pH adjustment)
1 | OC[C@H]1O[C@@H](O[C@H]2[C@H](O)[C@@H](O)C(O)O[C@@H]2CO)[C@H](O)[C@@H](O)[C@H]1O (stereo partly drawn) [Lactose] | 5.7 | – | – | –
2 | OC[C@@H](O)[C@@H](O)[C@H](O)[C@H](O)CO [Mannitol] | 75 | – | – | –
3 | OC[C@H]1O[C@H](O[C@H]2O[C@H](CO)[C@@H](O)[C@H](O)[C@H]2O)[C@H](O)[C@@H](O)[C@@H]1O [Trehalose] | 25.8 | – | – | –
4 | COc1cccc(N2CCN(C3=Nc4c(F)cccc4[C@H](CC(=O)[O-])N3c3cc(C(F)(F)F)ccc3OC)CC2)c1.[Na+] [letermovir sodium trihydrate salt, Sodium 2-[(4S)-8-fluoro-2-[4-(3-methoxyphenyl)piperazin-1-yl]-3-[2-methoxy-5-(trifluoromethyl)phenyl]-4H-quinazolin-4-yl]acetate] | – | 8.0 | None of the reconstituted formulations precipitated | 7.8
